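All cell lines were grown in 96-well plates and treated with compound for 48 hours. TGI is the concentration that stops growth completely.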
Tests used:
Experiment in all cases: NCI-60 cell line screen, 48 h
[1] = test system: 786-0 renal
[2] = test system: A549 NSCLC
[3] = test system: ACHN renal
[4] = test system: CAKI-1 renal
[5] = test system: CCRF-CEM leukemia
[6] = test system: COLO 205 colon
[7] = test system: DLD-1 colon
[8] = test system: DMS 114 small cell lung
[9] = test system: HCC-2998 colon
[10] = test system: HCT-116 colon
[11] = test system: HCT-15 colon
[12] = test system: HL-60(TB) leukemia
[13] = test system: HOP-62 NSCLC
[14] = test system: HOP-92 NSCLC
[15] = test system: HT29 colon
[16] = test system: IGROV1 ovarian
[17] = test system: K-562 leukemia
[18] = test system: KM12 colon
[19] = test system: KM20L2 colon
[20] = test system: LOX IMVI melanoma
[21] = test system: LXFL 529 NSCLC
[22] = test system: M14 melanoma
[23] = test system: M19-MEL melanoma
[24] = test system: MALME-3M melanoma
[25] = test system: MOLT-4 leukemia
[26] = test system: NCI-H226 lung
[27] = test system: NCI-H23 lung
[28] = test system: NCI-H460 lung
[29] = test system: NCI-H522 lung
[30] = test system: OVCAR-3 ovarian
[31] = test system: OVCAR-4 ovarian
[32] = test system: OVCAR-5 ovarian
[33] = test system: OVCAR-8 ovarian
[34] = test system: RPMI-8226 leukemia
[35] = test system: RXF 393 renal
[36] = test system: RXF-631 renal
[37] = test system: SF-268 CNS
[38] = test system: SF-295 CNS
[39] = test system: SF-539 CNS
[40] = test system: SK-MEL-28 melanoma
[41] = test system: SK-MEL-5 melanoma
[42] = test system: SK-OV-3 ovarian
[43] = test system: SN12C renal
[44] = test system: SNB-19 CNS
[45] = test system: SNB-75 CNS
[46] = test system: SNB-78 CNS
[47] = test system: SR leukemia
[48] = test system: SW-620 colon
[49] = test system: TK-10 renal
[50] = test system: U251 CNS
[51] = test system: UACC-257 melanoma
[52] = test system: UACC-62 melanoma
[53] = test system: UO-31 renal
[54] = test system: XF 498 CNS
[55] = test system: A498 renal
[56] = test system: DMS 273 small cell lung
[57] = test system: EKVX NSCLC
[58] = test system: HOP-18 NSCLC
[59] = test system: SK-MEL-2 melanoma

`CC(=O)N(O)Cc1ccccc1` was tested, and the TGI [1] was over 100 µM, the TGI [2] was over 100 µM and the TGI [3] was over 100 µM. For the same molecule, the TGI [4] was over 100 µM, the TGI [5] was over 100 µM and the TGI [6] was over 100 µM. It also gave a TGI [7] of over 100 µM, a TGI [8] of over 100 µM and a TGI [9] of over 100 µM. For the same molecule, the TGI [10] was over 100 µM, the TGI [11] was over 100 µM and the TGI [12] was over 100 µM. It also gave a TGI [13] of over 100 µM, a TGI [14] of over 100 µM and a TGI [15] of over 100 µM. It also gave a TGI [16] of over 100 µM, a TGI [17] of over 100 µM and a TGI [18] of over 100 µM. It also gave a TGI [19] of over 100 µM, a TGI [20] of over 100 µM and a TGI [21] of over 100 µM. The TGI [22] was over 100 µM, the TGI [23] was over 100 µM and the TGI [24] was over 100 µM. For the same molecule, the TGI [25] was over 100 µM, the TGI [26] was over 100 µM and the TGI [27] was over 100 µM. It also gave a TGI [28] of over 100 µM, a TGI [29] of over 100 µM and a TGI [30] of over 100 µM. It also gave a TGI [31] of over 100 µM, a TGI [32] of over 100 µM and a TGI [33] of over 100 µM. For the same molecule, the TGI [34] was over 100 µM, the TGI [35] was over 100 µM and the TGI [36] was over 100 µM. For the same molecule, the TGI [37] was over 100 µM, the TGI [38] was over 100 µM and the TGI [39] was over 100 µM. For the same molecule, the TGI [40] was over 100 µM, the TGI [41] was over 100 µM and the TGI [42] was over 100 µM. The TGI [43] was over 100 µM, the TGI [44] was over 100 µM and the TGI [45] was over 100 µM. The TGI [46] was over 100 µM, the TGI [47] was over 100 µM and the TGI [48] was over 100 µM. For the same molecule, the TGI [49] was over 100 µM, the TGI [50] was over 100 µM and the TGI [51] was over 100 µM. The TGI [52] was over 100 µM, the TGI [53] was over 100 µM and the TGI [54] was over 100 µM.

`C=CCOC(=O)C1CCC(=O)N1C(=O)C(Cl)Cl` (stereo not drawn) showed a TGI [1] of over 100 µM, a TGI [55] of over 100 µM and a TGI [2] of over 100 µM. For the same molecule, the TGI [3] was over 100 µM, the TGI [4] was over 100 µM and the TGI [5] was over 100 µM. For the same molecule, the TGI [6] was over 100 µM, the TGI [7] was over 100 µM and the TGI [8] was over 100 µM. For the same molecule, the TGI [56] was over 100 µM, the TGI [57] was over 100 µM and the TGI [9] was over 100 µM. For the same molecule, the TGI [10] was over 100 µM, the TGI [11] was over 100 µM and the TGI [12] was over 100 µM. The TGI [58] was over 100 µM, the TGI [13] was over 100 µM and the TGI [14] was over 100 µM. For the same molecule, the TGI [15] was over 100 µM, the TGI [16] was over 100 µM and the TGI [17] was over 100 µM. It also gave a TGI [18] of over 100 µM, a TGI [19] of over 100 µM and a TGI [20] of over 100 µM. For the same molecule, the TGI [21] was over 100 µM, the TGI [22] was over 100 µM and the TGI [23] was over 100 µM. It also gave a TGI [24] of over 100 µM, a TGI [25] of over 100 µM and a TGI [26] of over 100 µM. The TGI [27] was over 100 µM, the TGI [28] was over 100 µM and the TGI [29] was over 100 µM. The TGI [30] was over 100 µM, the TGI [31] was over 100 µM and the TGI [32] was over 100 µM. The TGI [33] was over 100 µM, the TGI [34] was over 100 µM and the TGI [37] was over 100 µM. The TGI [38] was over 100 µM, the TGI [59] was over 100 µM and the TGI [40] was over 100 µM. For the same molecule, the TGI [41] was over 100 µM, the TGI [42] was over 100 µM and the TGI [43] was over 100 µM. The TGI [44] was over 100 µM, the TGI [45] was over 100 µM and the TGI [46] was over 100 µM. It also gave a TGI [48] of over 100 µM, a TGI [49] of over 100 µM and a TGI [50] of over 100 µM. For the same molecule, the TGI [51] was over 100 µM, the TGI [52] was over 100 µM and the TGI [53] was over 100 µM. The TGI [54] was 33.2 µM.

For `N#Cc1ccc2cc3c(cc2c1)OCO3`, the TGI [1] was over 100 µM, the TGI [55] was over 100 µM and the TGI [3] was over 100 µM. It also gave a TGI [5] of over 100 µM, a TGI [6] of over 100 µM and a TGI [7] of over 100 µM. The TGI [8] was over 100 µM, the TGI [56] was over 100 µM and the TGI [9] was over 100 µM. The TGI [10] was over 100 µM, the TGI [11] was over 100 µM and the TGI [12] was over 100 µM. It also gave a TGI [13] of over 100 µM, a TGI [14] of over 100 µM and a TGI [15] of over 100 µM. It also gave a TGI [16] of over 100 µM, a TGI [17] of over 100 µM and a TGI [18] of over 100 µM. The TGI [19] was over 100 µM, the TGI [20] was over 100 µM and the TGI [21] was over 100 µM. It also gave a TGI [22] of over 100 µM, a TGI [23] of over 100 µM and a TGI [25] of over 100 µM. The TGI [26] was over 100 µM, the TGI [27] was over 100 µM and the TGI [28] was over 100 µM. The TGI [29] was over 100 µM, the TGI [30] was over 100 µM and the TGI [31] was over 100 µM. It also gave a TGI [32] of over 100 µM, a TGI [34] of over 100 µM and a TGI [35] of over 100 µM. For the same molecule, the TGI [36] was over 100 µM, the TGI [37] was over 100 µM and the TGI [38] was over 100 µM. It also gave a TGI [39] of over 100 µM, a TGI [59] of over 100 µM and a TGI [40] of over 100 µM. For the same molecule, the TGI [42] was over 100 µM, the TGI [43] was over 100 µM and the TGI [44] was over 100 µM. The TGI [45] was 74.3 µM, the TGI [46] was over 100 µM and the TGI [50] was over 100 µM. The TGI [52] was over 100 µM and the TGI [53] was 89.3 µM.

`O=C1C2C3C=C4c5ccccc5N(c5ccccc5)C4(C2C(=O)N1c1ccc(Br)cc1)[C@H]1C(=O)N(c2ccc(Br)cc2)C(=O)[C@@H]31` (stereo partly drawn) showed a TGI [1] of over 100 µM, a TGI [55] of over 100 µM and a TGI [2] of over 100 µM. The TGI [4] was 81.5 µM, the TGI [5] was over 100 µM and the TGI [6] was over 100 µM. The TGI [7] was over 100 µM, the TGI [56] was over 100 µM and the TGI [57] was over 100 µM. The TGI [10] was over 100 µM, the TGI [11] was over 100 µM and the TGI [12] was over 100 µM. It also gave a TGI [58] of over 100 µM, a TGI [13] of over 100 µM and a TGI [14] of over 100 µM. The TGI [15] was over 100 µM, the TGI [16] was over 100 µM and the TGI [17] was over 100 µM. It also gave a TGI [18] of over 100 µM, a TGI [19] of over 100 µM and a TGI [20] of over 100 µM. The TGI [21] was over 100 µM, the TGI [22] was over 100 µM and the TGI [24] was over 100 µM. The TGI [25] was over 100 µM, the TGI [26] was over 100 µM and the TGI [27] was over 100 µM. For the same molecule, the TGI [28] was over 100 µM, the TGI [29] was over 100 µM and the TGI [30] was over 100 µM. The TGI [31] was over 100 µM, the TGI [32] was over 100 µM and the TGI [33] was over 100 µM. The TGI [34] was over 100 µM, the TGI [35] was over 100 µM and the TGI [38] was over 100 µM. For the same molecule, the TGI [39] was over 100 µM, the TGI [59] was over 100 µM and the TGI [41] was over 100 µM. For the same molecule, the TGI [42] was over 100 µM, the TGI [43] was over 100 µM and the TGI [44] was over 100 µM. The TGI [45] was over 100 µM, the TGI [46] was over 100 µM and the TGI [47] was over 100 µM. The TGI [48] was over 100 µM, the TGI [49] was over 100 µM and the TGI [50] was over 100 µM. It also gave a TGI [51] of over 100 µM, a TGI [52] of over 100 µM and a TGI [53] of over 100 µM. For the same molecule, the TGI [54] was over 100 µM.

— PubChem BioAssay (NCI)
